Measured values published in patent US5223526A, “Pyrazole carboxanilide fungicides and use” (Monsanto Company, priority 1992, dated 1993).

Tests used:
succinate dehydrogenase = molecular target: T1, succinate dehydrogenase (Botrytis cinerea, UniProt A0A384J5E4+A0A384J8V8+A0A384JHJ5); test: Enzyme inhibition: succinate dehydrogenase activity in Botrytis cinerea mitochondria (DCPIP reduction); type: biochemical; conditions: concentration required to inhibit the rate of DCPIP reduction by 50%; Botrytis cinerea isolate Nick mitochondria; read-out: I50 (μM conc.)
T1 construct: succinate-DCPIP reductase assay with KCN
T1 sequence (A0A384J5E4 1-300): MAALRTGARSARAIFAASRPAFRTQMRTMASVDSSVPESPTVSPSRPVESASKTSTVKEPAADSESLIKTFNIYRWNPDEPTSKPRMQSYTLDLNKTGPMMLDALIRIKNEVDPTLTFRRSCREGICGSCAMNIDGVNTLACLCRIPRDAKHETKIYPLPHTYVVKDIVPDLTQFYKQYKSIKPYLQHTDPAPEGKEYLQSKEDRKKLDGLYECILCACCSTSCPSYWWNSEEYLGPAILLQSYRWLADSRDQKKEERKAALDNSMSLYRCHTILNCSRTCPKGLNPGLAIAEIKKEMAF
T1 sequence (A0A384J8V8 1-189): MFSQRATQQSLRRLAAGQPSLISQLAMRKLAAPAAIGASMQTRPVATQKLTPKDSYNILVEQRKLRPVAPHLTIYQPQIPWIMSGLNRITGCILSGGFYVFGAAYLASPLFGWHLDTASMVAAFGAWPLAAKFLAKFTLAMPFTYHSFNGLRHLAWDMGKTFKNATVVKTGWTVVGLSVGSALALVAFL
T1 sequence (A0A384JHJ5 1-192): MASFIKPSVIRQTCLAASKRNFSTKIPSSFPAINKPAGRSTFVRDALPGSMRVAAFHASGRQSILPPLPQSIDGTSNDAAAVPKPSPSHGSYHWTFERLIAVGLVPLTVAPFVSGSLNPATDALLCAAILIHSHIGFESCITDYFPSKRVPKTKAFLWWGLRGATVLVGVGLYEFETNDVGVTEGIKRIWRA
T1 sequence (A0A384K456 1-647 partner): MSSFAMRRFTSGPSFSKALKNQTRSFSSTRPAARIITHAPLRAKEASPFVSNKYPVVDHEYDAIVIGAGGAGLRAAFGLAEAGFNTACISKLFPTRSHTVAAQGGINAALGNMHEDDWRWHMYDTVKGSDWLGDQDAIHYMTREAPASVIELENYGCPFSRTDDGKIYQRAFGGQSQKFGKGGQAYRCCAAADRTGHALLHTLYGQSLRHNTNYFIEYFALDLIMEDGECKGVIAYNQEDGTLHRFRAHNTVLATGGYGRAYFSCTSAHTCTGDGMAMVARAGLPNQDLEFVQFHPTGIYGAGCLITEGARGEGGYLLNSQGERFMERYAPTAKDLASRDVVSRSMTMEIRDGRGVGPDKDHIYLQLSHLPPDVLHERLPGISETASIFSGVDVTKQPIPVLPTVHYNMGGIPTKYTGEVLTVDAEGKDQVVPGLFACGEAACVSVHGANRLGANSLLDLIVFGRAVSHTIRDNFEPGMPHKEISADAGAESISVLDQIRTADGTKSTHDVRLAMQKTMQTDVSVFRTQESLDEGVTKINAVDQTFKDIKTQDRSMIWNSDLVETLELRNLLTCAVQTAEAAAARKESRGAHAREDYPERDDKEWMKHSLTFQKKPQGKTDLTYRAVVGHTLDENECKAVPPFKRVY
Summary of the method: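 DCPIP (45 μM) reduction at 600 nm tracked with 17 mM succinate, 1 mM KCN and 50 mM potassium phosphate, pH 7.2. Compounds were added in acetone (final 1% v/v), and Botrytis cinerea isolate Nick mitochondrial fraction initiated the reaction. Rates minus endogenous activity gave percentage inhibition, plotted semilog against concentration to derive I50 (μM).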

Botrytis cinerea [1] = test: Eggplant grey mold; type: in vivo; design: scale not given here; conditions: inoculated 24 h later, rated after 3-4 days; for Disease Control Rating at 20 ppm: eggplant sprayed with 20 ppm; for Disease Control Rating at 100 ppm: eggplant sprayed with 100 ppm; for Disease Control Rating at 500 ppm: eggplant sprayed with 500 ppm
Summary of the method: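 Protective test: compound formulations (2:3 acetone:water, 0.5% Tween 20; 500, 100 or 20 ppm) sprayed on 14-18-day-old plants, with spore inoculum (4×10^6 spore/mL) applied a day later. Disease control rated on Botrytis lesions after 3-4 days at 23 °C and 100% humidity.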

Botrytis cinerea [2] = test: Vine grey mold (grape berries); type: in vivo; conditions: average of six berries, 7-10 days; for pest or weed control at 50 ppm: grape berries treated with 50 ppm, read-out: % DISEASE CONTROL 50 ppm; for pest or weed control at 200 ppm: grape berries treated with 200 ppm, read-out: % DISEASE CONTROL 200 ppm
Summary of the method: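 Preventive berry test: compound at 50 or 200 ppm (acetone/water, 0.05% Tween 20) applied one day before inoculation with 10^6 spores/mL Botrytis conidia. After 7-10 days at 20 °C under 12 h light, infected surface area rated; disease control expressed as percent reduction from control mean; repeated-test values averaged.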

Rhizoctonia solani = test: Rice sheath blight; type: in vivo; design: scale not given here; conditions: inoculated two days later, rated after 7 days, average of five plants; for Disease Control Rating at 0.02 mg/mL: foliage and soil sprayed with 0.02 mg/mL; for Disease Control Rating at 0.1 mg/mL: foliage and soil sprayed with 0.1 mg/mL; for Disease Control Rating at 0.5 mg/mL: foliage and soil sprayed with 0.5 mg/mL
Summary of the method: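 Preventive test: R. solani inoculum on rice grain was applied at the plant base two days after spraying foliage and soil with Compound A (0.5, 0.1 or 0.02 mg/mL, water/acetone/Tween 20). Plants aged 11–15 days stood in flood trays; after 7 days at 25 °C and high humidity, disease control was rated against untreated plants, five plants averaged.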

Structure (SMILES) | IC50 (succinate dehydrogenase) [µM] | Disease Control Rating at 20 ppm (Botrytis cinerea [1]) | Disease Control Rating at 100 ppm (Botrytis cinerea [1]) | Disease Control Rating at 500 ppm (Botrytis cinerea [1]) | pest or weed control at 50 ppm (Botrytis cinerea [2]) [%] | pest or weed control at 200 ppm (Botrytis cinerea [2]) [%] | Disease Control Rating at 0.02 mg/mL (Rhizoctonia solani) | Disease Control Rating at 0.1 mg/mL (Rhizoctonia solani) | Disease Control Rating at 0.5 mg/mL (Rhizoctonia solani)
COc1cccc(NC(=O)c2cn(C)nc2C(F)(F)F)c1C1CCCCCCC1 [Example 37, 1H-pyrazole-4-carboxamide, N-(2-cyclooctyl-3-methoxyphenyl)-1-methyl-3-(trifluoromethyl)-] | 0.0048 | 0 | 0 | 2 | 25 | 54 | 3 | 3 | 3
COc1ccc(C2CCCCCCC2)c(NC(=O)c2cn(C)nc2C(F)(F)F)c1 [Example 38, 1H-pyrazole-4-carboxamide, N-(2-cyclooctyl-5-methoxyphenyl)-1-methyl-3-(trifluoromethyl)-] | 0.014 | 0 | 2 | 2 | 0 | 14 | 0 | 0 | 1
CSc1nn(C)cc1C(=O)Nc1ccccc1C1CCCCC1 [Example 39, 1H-pyrazole-4-carboxamide, N-(2-cyclohexylphenyl)-1-methyl-3-(methylthio)-] | 0.36 |  |  | 1 | 50 | 55 |  |  | 0
Cn1cc(C(=O)Nc2ccccc2C=C2CCCCC2)c(C(F)(F)F)n1 [Example 40, 1H-pyrazole-4-carboxamide, N-[2-(cyclohexylidenemethyl)phenyl]-1-methyl-3-(trifluoromethyl)-] | 0.079 | 0 | 0 | 1 | 2 | 3 |  |  | 0
Cc1nn(C)cc1C(=O)Nc1ccccc1C1CCCCCCC1 [Example 41, 1H-pyrazole-4-carboxamide, N-(2-cyclooctylphenyl)-1,3-dimethyl-] | 0.021 | 0 | 0 | 3 | 34 | 37 | 1 | 3 | 3
Cn1cc(C(=O)Nc2ccccc2OCC2CCC2)c(C(F)F)n1 [Example 42, 1H-pyrazole-4-carboxamide, N-[2-(cyclobutylmethoxy)phenyl]-3-(difluoromethyl)-1-methyl-] | 0.2 |  |  | 0 | 0 | 25 | 2 | 3 | 3
Cn1cc(C(=O)Nc2ccccc2OCC2CCC2)c(C(F)(F)F)n1 [Example 43, 1H-pyrazole-4-carboxamide, N-[2-(cyclobutylmethoxy)phenyl]-1-methyl-3-(trifluoromethyl)-] | 0.38 |  |  | 0 | 3 | 0 | 2 | 3 | 3
Cn1cc(C(=O)Nc2ccccc2SC2CCCCC2)c(C(F)F)n1 [Example 44, 1H-pyrazole-4-carboxamide, N-[2-(cyclohexylthio)phenyl]-3-(difluoromethyl)-1-methyl-] | 0.052 |  |  | 1 | 0 | 37 |  |  | 0
Cn1cc(C(=O)Nc2ccccc2SC2CCCCC2)c(C(F)(F)F)n1 [Example 45, 1H-pyrazole-4-carboxamide, N-[2-(cyclohexylthio)phenyl]-1-methyl-3-(trifluoromethyl)-] | 0.092 |  |  | 0 | 7 | 12 |  |  | 0
Cn1cc(C(=O)Nc2ccccc2OCC2CCCC2)c(C(F)F)n1 [Example 46, 1H-pyrazole-4-carboxamide, N-[2-(cyclopentylmethoxy)phenyl]-3-(difluoromethyl)-1-methyl-] | 0.096 |  |  | 0 | 1 | 0 | 2 | 3 | 3
Cn1cc(C(=O)Nc2ccccc2OCC2CCCC2)c(C(F)(F)F)n1 [Example 47, 1H-pyrazole-4-carboxamide, N-[2-(cyclopentylmethoxy)phenyl]-1-methyl-3-(trifluoromethyl)-] | 0.16 |  |  | 0 | 3 | 0 | 1 | 3 | 3
Cn1cc(C(=O)Nc2ccccc2OCCCC2CCCC2)c(C(F)F)n1 [Example 48, 1H-pyrazole-4-carboxamide, N-[2-(3-cyclopentylpropoxy)phenyl]-3-(difluoromethyl)-1-methyl-] | 0.02 |  |  | 0 | 10 | 0 |  |  | 2
Cn1cc(C(=O)Nc2ccccc2OCCCC2CCCC2)c(C(F)(F)F)n1 [Example 49, 1H-pyrazole-4-carboxamide, N-[2-(3-cyclopentylpropoxy)phenyl]-1-methyl-3-(trifluoromethyl)-] | 0.047 |  |  | 0 | 4 | 0 |  |  | 0
Cn1cc(C(=O)Nc2ccccc2C2CCCCC2)c(Cl)n1 [Example 50, 1H-pyrazole-4-carboxamide, 3-chloro-N-(2-cyclohexylphenyl)-1-methyl-] | 0.098 |  |  | 0 | 8 | 22 | 0 | 0 | 2
Cn1cc(C(=O)Nc2ccccc2C2CCCCCC2)c(Cl)n1 [Example 51, 1H-pyrazole-4-carboxamide, 3-chloro-N-(2-cycloheptylphenyl)-1-methyl-] | 0.023 |  |  | 0 | 16 | 27 | 0 | 1 | 2
CC(c1ccccc1NC(=O)c1cn(C)nc1C(F)(F)F)C1CCCC1 (stereo not drawn) [Example 53, 1H-pyrazole-4-carboxamide, N-[2-(1-cyclopentylethyl)phenyl]-1-methyl-3-(trifluoromethyl)-] | 0.021 |  |  | 0 | 40 | 70 | 2 | 3 | 3
